Measured values reported in US11452292B2, “Biofilm inhibitor and method of inhibiting biofilm” (NDSU Research Foundation, priority 2017, dated 2022).
In brackets after ≈: the same amount, converted by molar mass.

What was measured:
C. sakazakii = experiment: Biofilm amounts, ATP assay, 24-well polystyrene plate; assay type: cell-based; conditions: Cronobacter sakazakii, 37° C.
Y. enterocolitica [1] = experiment: Biofilm amounts, CV assay, 24-well polystyrene plate; assay type: cell-based, Yersinia enterocolitica
Description: Data were expressed as OD600.

Y. enterocolitica [2] = experiment: Biofilm amounts, ATP assay, 24-well polystyrene plate; assay type: cell-based, Yersinia enterocolitica; conditions: for IC50: Yersinia enterocolitica, Y. enterocolitica
Y. enterocolitica [3] = experiment: Viable bacteria (cell counts) within the biofilm; assay type: cell-based, Yersinia enterocolitica
pseudomonads = experiment: Ground beef at 10° C., counts on PSA plates; assay type: cell-based; conditions: for Different from 0% (concentrations grouping differently from untreated control, Fisher's LSD and t-test): PSA, Pseudomonas
Experimental: (§1) Ground beef was obtained from the NDSU Meat Lab (ag.ndsu.edu/ansc/facilities/shepperd-arena). Precautionary steps that the slaughter facility undertakes to prevent microbial contamination of muscle meat include rinses of the hot carcass with hot water and 2.5% lactic acid (Birko Corp., Henderson, Colo.). Prior to cutting the meat, cattle halves are incubated for two weeks at a temperature between 0 and 2.2° C. For this Example, meat from two animals was ground within the NDSU Meat Lab and consecutively transferred on ice to the research lab where this Experiment was conducted. Approximately 4 pound of ground meat was obtained from two independent slaughter events (FIG. 6). These two original meat samples are referred to as biological replicates throughout this study. Each biological replicate was weighed into five aliquots of 200 g that were supplemented with 0 g, 0.1 g, 0.5 g, 1 g, or 5 g of liquid EAA (Alfa Aesar, Ward Hill Mass.). […]
(§2) Meat samples were removed from the freezer and incubated at 10° C. for five days; bacterial counts were determined on days 1, 3, and 5. […]
(§3) The content of each bag was transferred into a stomacher bag and Maximum Recovery Diluent (MRD) was added to a total of 50 ml. […] The total bacterial count of each homogenate was determined by plating serial dilutions on Plate Count Agar (PCA). Pseudomonads were determined with Pseudomonas Selective Agar (PSA), lactobacilli with All Purpose Tween agar (APT), B. thermospacta with Streptomycin sulphate, Thallous Acetate and Actidione agar (STAA), and Enterobacteriaceae with Violet Red Bile Glucose agar (VRBG). […]
(§4) Each experiment was performed in a total of 8 replicates (2 biological replicates×2 technical replicates×2 plate replicates). […] Data were analyzed for each EAA concentration and selective media and expressed as CFU/g of meat or log10 CFU/g of meat. […] Average and standard errors were calculated across the two biological and two technical replicates. […]

lactobacilli = experiment: Ground beef at 10° C., counts on APT plates; assay type: cell-based; conditions: for Different from 0% (concentrations grouping differently from untreated control, Fisher's LSD and t-test): LPT, Lactobacilli
Experimental: as §1, §2, §3, §4

B. thermospacta = experiment: Ground beef at 10° C., counts on STAA plates; assay type: cell-based, Brocothrix thermospacta; conditions: for Different from 0% (concentrations grouping differently from untreated control, Fisher's LSD and t-test): STAA, B. thermospacta
Experimental: as §1, §2, §3, §4

Enterobacteriaceae = experiment: Ground beef at 10° C., counts on VRBG plates; assay type: cell-based; conditions: for Different from 0% (concentrations grouping differently from untreated control, Fisher's LSD and t-test): VRGB, Enterobacteriaceae
Experimental: Ground beef was obtained from the NDSU Meat Lab (ag.ndsu.edu/ansc/facilities/shepperd-arena). Precautionary steps that the slaughter facility undertakes to prevent microbial contamination of muscle meat include rinses of the hot carcass with hot water and 2.5% lactic acid (Birko Corp., Henderson, Colo.). Prior to cutting the meat, cattle halves are incubated for two weeks at a temperature between 0 and 2.2° C. For this Example, meat from two animals was ground within the NDSU Meat Lab and consecutively transferred on ice to the research lab where this Experiment was conducted. Approximately 4 pound of ground meat was obtained from two independent slaughter events (FIG. 6). These two original meat samples are referred to as biological replicates throughout this study. Each biological replicate was weighed into five aliquots of 200 g that were supplemented with 0 g, 0.1 g, 0.5 g, 1 g, or 5 g of liquid EAA (Alfa Aesar, Ward Hill Mass.). A total of six aliquots of 10 g were produced from each 200 g aliquot to allow for two technical replicates and determination of bacterial counts at three different time points during the incubation period. Aliquots were stored in Ziploc bags at −20° C.
Meat samples were removed from the freezer and incubated at 10° C. for five days; bacterial counts were determined on days 1, 3, and 5. For one initial experiment, samples were removed after 1 h of incubation at 10° C. This aliquot is not included in FIG. 6.
The content of each bag was transferred into a stomacher bag and Maximum Recovery Diluent (MRD) was added to a total of 50 ml. Meat was homogenized in a Seward Stomacher 400 Circulator (Cole Parmer, Vernon Hills, Ill.). The total bacterial count of each homogenate was determined by plating serial dilutions on Plate Count Agar (PCA). Pseudomonads were determined with Pseudomonas Selective Agar (PSA), lactobacilli with All Purpose Tween agar (APT), B. thermospacta with Streptomycin sulphate, Thallous Acetate and Actidione agar (STAA), and Enterobacteriaceae with Violet Red Bile Glucose agar (VRBG). For the composition of these media, see TABLE 7 (BD: Becton Dickinson). […]
Each experiment was performed in a total of 8 replicates (2 biological replicates×2 technical replicates×2 plate replicates). […] Data were analyzed for each EAA concentration and selective media and expressed as CFU/g of meat or log10 CFU/g of meat. […] Average and standard errors were calculated across the two biological and two technical replicates. […] For comparisons that determined statistically significant differences between the means (p-value below 0.05), Fisher's Least Significant Difference (LSD) test and a pairwise Student's t-test were performed as post hoc test to determine which of the groups were different from the others.

E. coli O157:H7 = assay type: cell-based, Escherichia coli O157:H7; conditions: 0.5% EAA
S. aureus = experiment: Viable cell counts in the liquid collected from the tubing before each treatment; assay type: cell-based, Staphylococcus aureus; conditions: before the 2nd treatment, 100 mg/ml EAA as first treatment
rats = rats fed up to 300 mg/kg body weight of EAA every day for 28 days; cited from earlier work
albino rabbits = conditions: 0.5 ml EAA, semi-occlusive cover, intact skin, 4 hours of exposure; cited from earlier work
B. subtilis = conditions: cited from earlier work
E. coli CFT073 [4] = experiment: Biofilm in silicone tubing, EAA flush, CV assay
Y. enterocolitica [5] = experiment: Biofilm in silicone tubing, EAA flush, CV assay; conditions: 10 mg/ml EAA
E. coli CFT073 [6] = experiment: Biofilm in silicone tubing, EAA flush, ATP assay

SMILES: CCOC(=O)CC(C)=O [EAA, ethyl acetoacetate]
- IC50 (C. sakazakii): 310 µg/mL (≈ 2.38 mM)
- biofilm amounts quantified by the CV assay (Y. enterocolitica [1]; 37° C., 10 mg/ml EAA): abolished
- IC50 (Y. enterocolitica [1]; Yersinia enterocolitica, Y. enterocolitica, 25° C.): 1000 µg/mL (≈ 7.68 mM)
- biofilm reduction by the ATP assay, fold equivalent (Y. enterocolitica [2]; 25° C., 15 mg/ml of EAA): 200 fold
- log ratio of biofilm reduction by the ATP assay (Y. enterocolitica [2]; 25° C., 15 mg/ml of EAA): 2.3 log
- biofilm amounts quantified by the ATP assay (Y. enterocolitica [2]; 37° C., 10 mg/ml EAA): abolished
- log reduction in biofilm amount, ATP assay (Y. enterocolitica [2]; 37° C., 10 mg/ml of EAA): 2.04
- reduction in biofilm amount, ATP assay, fold equivalent (Y. enterocolitica [2]; 37° C., 10 mg/ml of EAA): 110 fold
- IC50 (Y. enterocolitica [2]; 25° C.): 2100 µg/mL (≈ 16.1 mM)
- IC50 (Y. enterocolitica [2]; 37° C.): 4290 µg/mL (≈ 33 mM)
- reduction of bacterial cell counts in the biofilm (Y. enterocolitica [3]; 25° C., 7.5 mg/ml EAA): 2.06 logs
- reduction of bacterial cell counts in the biofilm (Y. enterocolitica [3]; 25° C., 10 mg/ml EAA): 3.07 logs
- bacterial cell counts in the biofilm (Y. enterocolitica [3]; 37° C., 2.5 mg/ml EAA): did not show a reduction
- log reduction of bacterial cell counts in the biofilm (Y. enterocolitica [3]; 37° C., 7.5 mg/ml EAA): 2.06 logs
- log reduction in live bacteria within the biofilm (Y. enterocolitica [3]; 37° C., 10 mg/ml of EAA): 0.92
- reduction in live bacteria within the biofilm, fold equivalent (Y. enterocolitica [3]; 37° C., 10 mg/ml of EAA): 8.3 fold
- IC50 (Y. enterocolitica [3]; Yersinia enterocolitica, Y. enterocolitica, 25° C., live bacteria in the biofilm, read-out: IC50, Live cells): 3000 µg/mL (≈ 23.1 mM)
- log reduction, pseudomonads (pseudomonads; 0.5% w/w EAA, 3 days at 10° C.): 2.6
- Different from 0% (concentrations grouping differently from untreated control, Fisher's LSD and t-test) (pseudomonads; 0.5% EAA): 0.5%
- Different from 0% (concentrations grouping differently from untreated control, Fisher's LSD and t-test) (pseudomonads; 2.5% EAA): 2.5%
- log reduction, lactobacilli (lactobacilli; 0.5% w/w EAA, 3 days at 10° C.): 1.8
- Different from 0% (concentrations grouping differently from untreated control, Fisher's LSD and t-test) (lactobacilli; 0.5% EAA): 0.5%
- Different from 0% (concentrations grouping differently from untreated control, Fisher's LSD and t-test) (lactobacilli; 2.5% EAA): 2.5%
- log reduction, Brocothrix thermospecta (B. thermospacta; 0.5% w/w EAA, 3 days at 10° C.): 2.1
- Different from 0% (concentrations grouping differently from untreated control, Fisher's LSD and t-test) (B. thermospacta; 0.5% EAA): 0.5%
- Different from 0% (concentrations grouping differently from untreated control, Fisher's LSD and t-test) (B. thermospacta; 2.5% EAA): 2.5%
- log reduction, Enterobacteriaceae (Enterobacteriaceae; 0.5% w/w EAA, 3 days at 10° C.): 2
- log reductions, Enterobacteriaceae (Enterobacteriaceae; 2.5% of EAA, 5 days at 10° C.): up to 3.8
- Different from 0% (concentrations grouping differently from untreated control, Fisher's LSD and t-test) (Enterobacteriaceae; 0.5% EAA): 0.5%
- Different from 0% (concentrations grouping differently from untreated control, Fisher's LSD and t-test) (Enterobacteriaceae; 2.5% EAA): 2.5%
- externally added E. coli count in the presence of EAA (E. coli O157:H7; day 3, without EAA 5.2 log10): 4.1 log10
- reduction in the E. coli count (E. coli O157:H7; day 5 at 10° C.): 1.6 log
- difference in viable cells in the liquid, EAA vs media flush (S. aureus): 2 log
- general health, hematology, serum, urine, renal function (rats): did not result in any general health defects or changes in hematology, serum, urine, or renal function
- skin irritation (albino rabbits): no indications of irritation were detected
- mutagenicity (B. subtilis): No mutagenicity was detected
- reduction in total biofilm biomass (CV), words (E. coli CFT073 [4]; E. coli CFT073, 5 mg/ml of EAA): almost no reduction
- reduction in biofilm biomass (CV), words (E. coli CFT073 [4]; E. coli CFT073, 10 mg/ml EAA): No reduction
- reduction in biofilm biomass (CV), words (Y. enterocolitica [5]): No reduction
- reduction in ATP content of the biofilm (E. coli CFT073 [6]; E. coli CFT073, 5 mg/ml EAA): ~100%
- percent reduction of ATP (E. coli CFT073 [6]; E. coli CFT073, 100 mg/ml EAA): 98.5%
